Patent publication US6350769B1 (The Regents of the University of California, priority 1999, dated 2002)

Tests used:
lymph node T cell = test: antigen-primed lymph node T cell proliferative recall response (3H-thymidine incorporation); assay type: cell-based, NOD, Balb/c and AKR mice; conditions: for immuno-inhibitory effect of GABA on co-incubation with the compound: different (also high) concentrations of GABA, GADp35; for immuno-inhibitory effect of GABA on co-incubation with the compound / effect on GABA-mediated inhibition of T cell proliferation: co-incubation; for effect on GABA-mediated inhibition of T cell proliferation: 1 μM-500 μM
Method: NOD, Balb/c and AKR mice were immunized with an immunogenic foreign (HEL) or self (GAD) peptide in 50% CFA. […] Groups of 5 mice were tested in two independent experiments.
Lymph node mononuclear cells from GADp35 primed NOD mice were pretreated with different concentrations of muscimol or baclofen in vitro, and then challenged with 7 μM GADp35 to stimulate antigen specific T cell proliferation. The data are presented as the per cent ^3H-thymidine incorporation relative to control peptid-estimulated cells without muscimol or baclofen treatment. Lymph node mononuclear cells in medium alone served as negative controls. […] Groups of 5-6 mice were tested in two independent experiments.
Groups of 5 mice were tested in three independent experiments.
Lymph node mononuclear cells from NOD mice which were immunized with GADp35 were cultured with bicuculline, RU5135 or picrotoxin. […] The data are expressed as the per cent ^3H-thymidine incorporation relative to control antigen-stimulated cells without any drug treatment. […] Groups of 5-6 mice were tested in three independent experiments.
Three strains of mice with different MHC class II alleles were immunized with an immunogenic peptide from hen egg lysozyme (HEL). […] Mice were injected with 20 nM peptide in 50% complete Freund's adjuvant (CFA, Gibco) in their hind food-pad.
GAD peptides were selected from an overlapping set of peptides which span the GAD molecule (Atkinson et al. (1994) J. Clin. Invest. 94:2125-2129). GAD65 peptide 35 (GADp35) contains a self-antigen determinant for NOD (H-2^NOD; Taconic Farms) and BALB/c (H-2^d) mice (Jackson Laboratory) and GAD peptide 25 (GADp25) contains a self-antigen determinant for AKR (H-2^k) mice (Jackson Laboratory; Kaufman et al. (1993) Nature 366:69-72). Following immunization with 20 nM of immunogenic GAD peptide in 50% complete Freund's adjuvant (CFA, Gibco), T cell proliferation was assayed as described above.

splenic T cell = test: anti-CD3 stimulated splenic T cell proliferation (3H-thymidine incorporation); assay type: cell-based, Balb/c mice
Method: During the last 8 hours of incubation, ^3H-thymidine (1 μCi/well) was added into each well to determine T cell proliferation. […] The background level of ^3H-thymidine incorporation in medium alone was 1,965-2,400 cpm. Groups of 5-6 mice were tested in two independent experiments.
The data are presented as the mean percent ^3H-thymidine incorporation relative to the positive control from groups of 5-6 mice which were tested in 2-3 independent experiments.

[1] = tested on: mononuclear splenic cells; test: T cell response to PMA and ionomycin; assay type: cell-based, mice; conditions: 10 μM-10 mM
[2] = tested on: lymph node mononuclear cells from GADp35 immunized NOD mice; test: IL-2 production by antigen stimulated T cells (CTLL proliferation readout); assay type: cell-based; conditions: GADp35 at 2, 7 and 20 micromolar; 36 hours; different concentrations of GABA
Method: The IL-2 activity in supernatant was determined by IL-2-dependent CTLL proliferation. The data are expressed as IL-2 units/ml±SD.
(§1) Mice (6-8 weeks in age) were injected with 20 nM GADp35 peptide in 50% complete Freund's adjuvant (CFA, Gibco) in their hind food-pad. […] The supernatant of the cultured cells was harvested and the activity of IL-2 was measured using the IL-2-dependent cell line CTLL-2. Recombinant mouse IL-2 (Genzyme) was used as a standard.

CTLL-2 cells = test: control CTLL-2 cell response to recombinant murine IL-2; assay type: cell-based, mouse; conditions: 10 μM-10 mM
Method: as §1

NOD mice = test: antigen-primed DTH response (KLH footpad swelling); assay type: in vivo
Method: The next day, the mice were immunized with KLH in 50% CFA at the base of their tail. One week later, the mice were challenged with KLH in PBS in their right footpad, while the left footpad received ovalbumin in PBS as a control. Footpad swelling was expressed as the average size increase of the KLH injected footpad compared to the control footpad±SD (n=5 mice/group, *p<0.005, **p<0.002, ***p<0.001).
The next day, the mice were immunized with 100 μg keyhole limpet hemocyanin (KLH, Sigma), a prototypic foreign antigen, in 50% CFA at the base of their tail. One week later, the mice were challenged with KLH (100 μg in 25 μl PBS) in their right footpad, while the left footpad received ovalbumin (100 μg in […] PBS) as a control. Both hind feet were measured before injection and at 24, 48, 72 and 96 hrs post injection using a monostat caliper. Footpad swelling was expressed as the average size increase (in millimeters) of the KLH-injected footpad compared to the control ovalbumin-injected footpad of each animal. The measurements were conducted in a blinded fashion on coded animals.

NOD-scid mice = test: adoptive transfer of IDDM to NOD-scid mice; assay type: in vivo; conditions: 600 μg/day
Source text: Ten to twenty million splenocytes from NOD mice with recent onset of IDDM were intravenously injected into recipient 6-week-old mice. […] (n=12 for both groups).
A NOD strain congenic for the severe combined immunodeficiency (scid) mutation developed to study diabetogenesis in NOD mice was used in the adoptive transfer experiment. Neither insulitis nor diabetes is observed in the NOD-scid mice because they lack functional lymphocytes. This ensured that the T cells responsible for diabetes in recipient NOD-scid mice were derived from the diabetic donor NOD mice. Only female NOD mice were used since they incur a higher incidence of IDDM than males.
The control mice received a placebo pellet instead the GABA pellet. The mice were monitored for diabetes onset by testing their urine glucose levels with Tes-tape and blood glucose levels with a glucometer. The onset of IDDM is defined as two consecutive blood glucose readings of over 300 mg/dl.

[3] = NOD, Balb/c and AKR mice, 7 μM peptide, different concentrations of GABA
[4] = 21-day slow release GABA pellet

N[C@@H](CCC(=O)O)C(=O)O [glutamic acid]
effect on T cell proliferative responses, alone or co-incubated with GABA (lymph node T cell; 10 μM-10 mM): little effect

NCC(CC(=O)O)c1ccc(Cl)cc1 (centres unmarked) [baclofen]
effect on T cell proliferation (lymph node T cell; 10 μM-10 mM): little effect
interference with the immuno-suppressive action of muscimol (lymph node T cell; 10 μM-10 mM, with muscimol): did not interfere

CCCC(C)C1(CC)C(=O)NC(=O)NC1=O (centres unmarked) [pentobarbital]
effect on GABA inhibition of T cell responses (lymph node T cell; 3 μM with different concentrations of GABA, 7 μM GADp35, 96 hours): potentiated the actions of GABA
impact of compound without GABA on antigen-primed T cell proliferation (lymph node T cell; 3 μM, without GABA): little impact

C[C@]12CC[C@@H](O)C[C@H]1CC[C@@H]1[C@@H]2C(=O)C[C@]2(C)N=C(N)C[C@@H]12 [RU5315]
immuno-inhibitory effect of GABA on co-incubation with the compound (lymph node T cell): greatly reduced

NCCC(=O)O [β-alanine]
effect on T cell proliferative responses, alone or co-incubated with GABA (lymph node T cell; 10 μM-10 mM): little effect

NCCCC(=O)O [GABA, γ-Aminobutyric acid]
impact on T cell survival (splenic T cell; in vitro culture): little impact on T cell survival
T cell proliferation with the compound itself (without anti-CD3) (splenic T cell; without anti-CD3): failed to stimulate T cell proliferation
effect on T cell response to PMA and ionomycin [1]: did not significantly affect
T cell recall proliferation to foreign antigen (HEL peptides) (lymph node T cell; [3]): inhibit T cell proliferation to the immunogens in a dose-dependent manner
T cell recall proliferation to self-antigen (GAD peptides) (lymph node T cell; [3]): inhibit proliferative T cell responses to the injected antigen in all three strains of mice in a dose-dependent manner
antigen-induced IL-2 secretion [2]: reduced in a dose-dependent manner
CTLL-2 cell response to recombinant murine IL-2 on addition of compound (CTLL-2 cells): unaffected
signs of toxicity (NOD mice; mice implanted with GABA-releasing pellets (600 μg GABA/day)): no obvious signs of toxicity
less footpad swelling in response to KLH than placebo-treated mice (NOD mice; pellet releasing 600 μg/day GABA, under the skin, 24-72 hour response period, p<0.005): 30-50%
diabetes incidence after adoptive transfer (NOD-scid mice; [4]): significantly reduced diabetes incidence
onset of IDDM beginning at (NOD-scid mice; [4]): 4 weeks
onset of IDDM in mice that developed it (NOD-scid mice; [4]): delayed onset
onset of IDDM beginning at (NOD-scid mice; 60-day slow release GABA pellet): 7 weeks

O=C(O)C1CCCNC1 (centres unmarked) [nipecotic acid]
effect on GABA-mediated inhibition of T cell proliferation (lymph node T cell): did not significantly affect

NCc1cc(=O)[nH]o1 [muscimol]
anti-CD3 induced T cell proliferation (splenic T cell; different concentrations): inhibit in a dose-dependent manner
reduction of antigen primed T cell responses (lymph node T cell; 300 μM, GADp35 primed NOD mice): approximately 40%
antigen-induced T cell proliferation (lymph node T cell; different concentrations, 7 μM GADp35): inhibit in a dose-dependent manner

C=CC(N)CCC(=O)O (centres unmarked) [γ-vinyl-GABA]
effect on GABA-mediated inhibition of T cell proliferation (lymph node T cell): did not significantly affect

picrotoxin
immuno-inhibitory effect of GABA on co-incubation with the compound (lymph node T cell): almost abolished
